{"source": "ChEMBL document CHEMBL1649565", "about": "“Besifloxacin, a novel fluoroquinolone, has broad-spectrum in vitro activity against aerobic and anaerobic bacteria” (Antimicrob Agents Chemother, 2009)", "type_in_all_cases": "functional", "key": {"[1]": {"system": "Klebsiella pneumoniae", "assay": "Antibacterial activity against Klebsiella pneumoniae by CLSI M7-A7 method"}, "[2]": {"system": "Stenotrophomonas maltophilia", "assay": "Antibacterial activity against non-levofloxacin susceptible Stenotrophomonas maltophilia by CLSI M7-A7 method"}, "[3]": {"system": "Proteus vulgaris", "assay": "Antibacterial activity against Proteus vulgaris assessed as percent susceptible isolates by CLSI M7-A7 method"}, "[4]": {"system": "Morganella morganii", "assay": "Antibacterial activity against Morganella morganii assessed as percent susceptible isolates by CLSI M7-A7 method"}, "[5]": {"system": "Enterobacter cloacae", "assay": "Antibacterial activity against Enterobacter cloacae by CLSI M7-A7 method"}, "[6]": {"system": "Acinetobacter calcoaceticus", "assay": "Antibacterial activity against Acinetobacter calcoaceticus by CLSI M7-A7 method"}, "[7]": {"system": "Citrobacter freundii", "assay": "Antibacterial activity against Citrobacter freundii by CLSI M7-A7 method"}, "[8]": {"system": "Klebsiella pneumoniae", "assay": "Antibacterial activity against Klebsiella pneumoniae assessed as percent susceptible isolates by CLSI M7-A7 method"}, "[9]": {"system": "Klebsiella aerogenes", "assay": "Antibacterial activity against Enterobacter aerogenes by CLSI M7-A7 method"}, "[10]": {"system": "Proteus mirabilis", "assay": "Antibacterial activity against Proteus mirabilis assessed as percent susceptible isolates by CLSI M7-A7 method"}, "[11]": {"system": "Klebsiella aerogenes", "assay": "Antibacterial activity against Enterobacter aerogenes assessed as percent susceptible isolates by CLSI M7-A7 method"}, "[12]": {"system": "Klebsiella oxytoca", "assay": "Antibacterial activity against Klebsiella oxytoca by CLSI M7-A7 method"}, "[13]": {"system": "Pseudomonas aeruginosa", "assay": "Antibacterial activity against ciprofloxacin-susceptible Pseudomonas aeruginosa assessed as percent susceptible isolates by CLSI M7-A7 method"}, "[14]": {"system": "Acinetobacter lwoffii", "assay": "Antibacterial activity against Acinetobacter lwoffii by CLSI M7-A7 method"}, "[15]": {"system": "Acinetobacter baumannii", "assay": "Antibacterial activity against Acinetobacter baumannii by CLSI M7-A7 method"}, "[16]": {"system": "Serratia marcescens", "assay": "Antibacterial activity against Serratia marcescens by CLSI M7-A7 method"}, "[17]": {"system": "Citrobacter koseri", "assay": "Antibacterial activity against Citrobacter koseri assessed as percent susceptible isolates by CLSI M7-A7 method"}, "[18]": {"system": "Stenotrophomonas maltophilia", "assay": "Antibacterial activity against levofloxacin-susceptible Stenotrophomonas maltophilia assessed as assessed as percent susceptible isolates by CLSI M7-A7 method"}, "[19]": {"system": "Proteus mirabilis", "assay": "Antibacterial activity against Proteus mirabilis by CLSI M7-A7 method"}, "[20]": {"system": "Serratia marcescens", "assay": "Antibacterial activity against levofloxacin susceptible Serratia marcescens assessed as percent susceptible isolates by CLSI M7-A7 method"}, "[21]": {"system": "Pseudomonas aeruginosa", "assay": "Antibacterial activity against non-ciprofloxacin-susceptible Pseudomonas aeruginosa assessed as percent susceptible isolates by CLSI M7-A7 method"}, "[22]": {"system": "Citrobacter freundii", "assay": "Antibacterial activity against Citrobacter freundii assessed as percent susceptible isolates by CLSI M7-A7 method"}, "[23]": {"system": "Klebsiella oxytoca", "assay": "Antibacterial activity against Klebsiella oxytoca assessed as percent susceptible isolates by CLSI M7-A7 method"}, "[24]": {"system": "Morganella morganii", "assay": "Antibacterial activity against Morganella morganii by CLSI M7-A7 method"}, "[25]": {"system": "Pseudomonas aeruginosa", "assay": "Antibacterial activity against ciprofloxacin-susceptible Pseudomonas aeruginosa by CLSI M7-A7 method"}, "[26]": {"system": "Citrobacter koseri", "assay": "Antibacterial activity against Citrobacter koseri by CLSI M7-A7 method"}, "[27]": {"system": "Stenotrophomonas maltophilia", "assay": "Antibacterial activity against non-levofloxacin susceptible Stenotrophomonas maltophilia assessed as percent susceptible isolates by CLSI M7-A7 method"}, "[28]": {"system": "Enterobacter cloacae", "assay": "Antibacterial activity against Enterobacter cloacae assessed as percent susceptible isolates by CLSI M7-A7 method"}, "[29]": {"system": "Pseudomonas aeruginosa", "assay": "Antibacterial activity against non-ciprofloxacin-susceptible Pseudomonas aeruginosa by CLSI M7-A7 method"}, "[30]": {"system": "Acinetobacter lwoffii", "assay": "Antibacterial activity against Acinetobacter lwoffii assessed as percent susceptible isolates by CLSI M7-A7 method"}, "[31]": {"system": "Acinetobacter calcoaceticus", "assay": "Antibacterial activity against Acinetobacter calcoaceticus assessed as percent susceptible isolates by CLSI M7-A7 method"}, "[32]": {"system": "Stenotrophomonas maltophilia", "assay": "Antibacterial activity against levofloxacin-susceptible Stenotrophomonas maltophilia by CLSI M7-A7 method"}, "[33]": {"system": "Proteus vulgaris", "assay": "Antibacterial activity against Proteus vulgaris by CLSI M7-A7 method"}, "[34]": {"system": "Acinetobacter baumannii", "assay": "Antibacterial activity against Acinetobacter baumannii assessed as percent susceptible isolates by CLSI M7-A7 method"}}, "data": [{"compound": "CC(C)(O/N=C(\\C(=O)N[C@@H]1C(=O)N2C(C(=O)[O-])=C(C[n+]3ccccc3)CS[C@H]12)c1csc(N)n1)C(=O)O", "note": "[CEFTAZIDIME]", "values": [{"measurement": "MIC50", "setting": "[1]", "value": 0.12, "unit": "µg/mL"}, {"measurement": "MIC90", "setting": "[1]", "value": 1, "unit": "µg/mL"}, {"measurement": "MIC", "setting": "[2]", "value": 0.5, "unit": "µg/mL"}, {"measurement": "Activity", "setting": "[3]", "value": 100, "unit": "%"}, {"measurement": "Activity", "setting": "[4]", "value": 82.4, "unit": "%"}, {"measurement": "MIC50", "setting": "[5]", "value": 0.5, "unit": "µg/mL"}, {"measurement": "MIC90", "setting": "[5]", "value": "> 16", "unit": "µg/mL"}, {"measurement": "MIC50", "setting": "[6]", "value": 4, "unit": "µg/mL"}, {"measurement": "MIC90", "setting": "[6]", "value": "> 16", "unit": "µg/mL"}, {"measurement": "MIC50", "setting": "[7]", "value": 0.25, "unit": "µg/mL"}, {"measurement": "MIC90", "setting": "[7]", "value": "> 16", "unit": "µg/mL"}, {"measurement": "Activity", "setting": "[8]", "value": 92, "unit": "%"}, {"measurement": "MIC50", "setting": "[9]", "value": 2, "unit": "µg/mL"}, {"measurement": "MIC90", "setting": "[9]", "value": "> 16", "unit": "µg/mL"}, {"measurement": "Activity", "setting": "[10]", "value": 98, "unit": "%"}, {"measurement": "Activity", "setting": "[11]", "value": 62, "unit": "%"}, {"measurement": "MIC50", "setting": "[12]", "value": 0.12, "unit": "µg/mL"}, {"measurement": "MIC90", "setting": "[12]", "value": 0.5, "unit": "µg/mL"}, {"measurement": "Activity", "setting": "[13]", "value": 93.3, "unit": "%"}, {"measurement": "MIC50", "setting": "[14]", "value": 2, "unit": "µg/mL"}, {"measurement": "MIC90", "setting": "[14]", "value": "> 16", "unit": "µg/mL"}, {"measurement": "MIC50", "setting": "[15]", "value": "> 16", "unit": "µg/mL"}, {"measurement": "MIC90", "setting": "[15]", "value": "> 16", "unit": "µg/mL"}, {"measurement": "MIC50", "setting": "[16]", "value": 0.06, "unit": "µg/mL"}, {"measurement": "MIC90", "setting": "[16]", "value": 0.5, "unit": "µg/mL"}, {"measurement": "Activity", "setting": "[17]", "value": 100, "unit": "%"}, {"measurement": "Activity", "setting": "[18]", "value": 32.7, "unit": "%"}, {"measurement": "MIC", "setting": "[19]", "value": "≤ 0.03", "unit": "µg/mL"}, {"measurement": "MIC50", "setting": "[19]", "value": "≤ 0.03", "unit": "µg/mL"}, {"measurement": "MIC90", "setting": "[19]", "value": 0.06, "unit": "µg/mL"}, {"measurement": "Activity", "setting": "[20]", "value": 93, "unit": "%"}, {"measurement": "Activity", "setting": "[21]", "value": 57.3, "unit": "%"}, {"measurement": "Activity", "setting": "[22]", "value": 78, "unit": "%"}, {"measurement": "Activity", "setting": "[23]", "value": 100, "unit": "%"}, {"measurement": "MIC50", "setting": "[24]", "value": 0.12, "unit": "µg/mL"}, {"measurement": "MIC90", "setting": "[24]", "value": 16, "unit": "µg/mL"}, {"measurement": "MIC50", "setting": "[25]", "value": 2, "unit": "µg/mL"}, {"measurement": "MIC90", "setting": "[25]", "value": 8, "unit": "µg/mL"}, {"measurement": "MIC50", "setting": "[26]", "value": 0.12, "unit": "µg/mL"}, {"measurement": "MIC90", "setting": "[26]", "value": 0.5, "unit": "µg/mL"}, {"measurement": "Activity", "setting": "[27]", "value": 43.8, "unit": "%"}, {"measurement": "Activity", "setting": "[28]", "value": 70, "unit": "%"}, {"measurement": "MIC50", "setting": "[29]", "value": 4, "unit": "µg/mL"}, {"measurement": "MIC90", "setting": "[29]", "value": "> 16", "unit": "µg/mL"}, {"measurement": "Activity", "setting": "[30]", "value": 76, "unit": "%"}, {"measurement": "Activity", "setting": "[31]", "value": 63, "unit": "%"}, {"measurement": "MIC", "setting": "[32]", "value": 0.5, "unit": "µg/mL"}, {"measurement": "MIC50", "setting": "[33]", "value": 0.06, "unit": "µg/mL"}, {"measurement": "MIC90", "setting": "[33]", "value": 0.12, "unit": "µg/mL"}, {"measurement": "Activity", "setting": "[34]", "value": 39.6, "unit": "%"}]}]}
